# Reference: ChEMBL document CHEMBL4616635, “Investigations of antiproliferative and antioxidant activity of β-lactam morpholino-1,3,5-triazine hybrids” (Bioorg Med Chem, 2020)
# Legend:
# [1] = test system: SW 1116; experiment: Antiproliferative activity against human SW1116 cells assessed as inhibition of cell growth after overnight incubation by MTT assay; assay type: functional, cell-based
# [2] = test system: HEK293; experiment: Cytotoxicity against human HEK293 cells assessed as inhibition of cell growth after overnight incubation by MTT assay; assay type: cell-based
# [3] = test system: HepG2; experiment: Antiproliferative activity against human HepG2 cells assessed as inhibition of cell growth after overnight incubation by MTT assay; assay type: functional, cell-based
# [4] = Antioxidant activity assessed as DPPH radical scavenging activity measured for 5 mins by UV absorbance analysis; assay type: functional
# [5] = test system: MCF7; experiment: Antiproliferative activity against human MCF7 cells assessed as inhibition of cell growth after overnight incubation by MTT assay; assay type: functional, cell-based
# [6] = test system: Calf thymus DNA; experiment: Binding affinity to calf thymus DNA assessed as binding constant at 40 uM after 2 mins by UV-vis spectroscopy; assay type: nucleic-acid assay; settings: Bos taurus
# [7] = test system: Calf thymus DNA; experiment: Binding affinity to calf thymus DNA assessed as hypochromism by measuring red shift in absorption spectra at 40 uM after 2 mins by UV-vis spectroscopy; assay type: nucleic-acid assay; settings: Bos taurus
# [8] = test system: Calf thymus DNA; experiment: Binding affinity to calf thymus DNA assessed as hyperchromism by measuring blue shift in absorption spectra at 40 uM after 2 mins by UV-vis spectroscopy; assay type: nucleic-acid assay; settings: Bos taurus
# [9] = test system: Calf thymus DNA; experiment: Binding affinity to calf thymus DNA assessed as binding constant at 68 uM after 2 mins by UV-vis spectroscopy; assay type: nucleic-acid assay; settings: Bos taurus
# [10] = test system: Calf thymus DNA; experiment: Binding affinity to calf thymus DNA assessed as hypochromism by measuring red shift in absorption spectra at 68 uM after 2 mins by UV-vis spectroscopy; assay type: nucleic-acid assay; settings: Bos taurus
IC50 [3] [µM],IC50 [4] [µg/mL],IC50 [5] [µM],Kb [6],Activity [7] [nm],Activity [8] [nm],Kb [9] [×10⁵ /M],Activity [10] [nm],SMILES,IC50 [1] [µM],IC50 [2] [µM]
> 100,> 10000,> 100,,,,,,O=C1[C@@H](Oc2ccc(Cl)cc2)[C@@H](c2ccc(Cl)cc2)N1c1ccc(Nc2nc(N3CCOCC3)nc(N3CCOCC3)n2)cc1 (relative stereo),> 100,> 100
> 100,> 10000,> 100,2.6 ×10⁵ /M,-5,,,,O=C1[C@@H](Oc2ccc(Cl)cc2)[C@@H](c2ccc([N+](=O)[O-])cc2)N1c1ccc(Nc2nc(N3CCOCC3)nc(N3CCOCC3)n2)cc1 (relative stereo),4.88,> 100
> 100,> 10000,> 100,,,,,,O=C1[C@@H](Oc2ccc(Cl)cc2Cl)[C@@H](c2ccc(Cl)cc2)N1c1ccc(Nc2nc(N3CCOCC3)nc(N3CCOCC3)n2)cc1 (relative stereo),86.2,> 100
> 100,> 10000,> 100,,,,,,O=C1[C@@H](Oc2ccc(Cl)cc2Cl)[C@@H](c2cccc([N+](=O)[O-])c2)N1c1ccc(Nc2nc(N3CCOCC3)nc(N3CCOCC3)n2)cc1 (relative stereo),> 100,> 100
> 100,5900,> 100,,,,,,CCOc1ccc(N2C(=O)[C@@H](Oc3ccccc3)[C@H]2c2ccc(Oc3nc(N4CCOCC4)nc(N4CCOCC4)n3)cc2)cc1 (relative stereo),> 100,> 100
> 100,195,> 100,,,,,,COc1ccc(/N=C/c2ccc(Oc3nc(N4CCOCC4)nc(N4CCOCC4)n3)cc2)cc1,> 100,> 100
,195,,,,,,,O=C1O[C@H]([C@@H](O)CO)C(O)=C1O [ASCORBIC ACID],,
> 100,275,> 100,,,,,,Clc1ccc(/C=N/c2ccc(Nc3nc(N4CCOCC4)nc(N4CCOCC4)n3)cc2)cc1,93.4,> 100
> 100,> 10000,> 100,,,,,,COc1ccc(N2C(=O)[C@@H](Oc3ccccc3)[C@H]2c2ccc(Oc3nc(N4CCOCC4)nc(N4CCOCC4)n3)cc2)cc1,> 100,> 100
> 100,5800,> 100,,,,,,O=C1[C@@H](Oc2ccc(Cl)cc2Cl)[C@@H](c2ccc([N+](=O)[O-])cc2)N1c1ccc(Nc2nc(N3CCOCC3)nc(N3CCOCC3)n2)cc1 (relative stereo),35.7,> 100
> 100,9600,> 100,,,,,,COc1ccc(N2C(=O)[C@@H](Oc3ccc(Cl)cc3Cl)[C@H]2c2ccc(Oc3nc(N4CCOCC4)nc(N4CCOCC4)n3)cc2)cc1 (relative stereo),2.7,> 100
> 100,50,> 100,,,,,,CCOc1ccc(/N=C/c2ccc(Oc3nc(N4CCOCC4)nc(N4CCOCC4)n3)cc2)cc1,> 100,> 100
> 100,4800,> 100,,,,,,O=C1[C@@H](Oc2ccccc2)[C@@H](c2ccc(Cl)cc2)N1c1ccc(Nc2nc(N3CCOCC3)nc(N3CCOCC3)n2)cc1 (relative stereo),> 100,> 100
> 100,> 10000,> 100,,,,,,O=C1[C@@H](Oc2ccccc2)[C@@H](c2ccc(Oc3nc(N4CCOCC4)nc(N4CCOCC4)n3)cc2)N1c1ccc(Nc2nc(N3CCOCC3)nc(N3CCOCC3)n2)cc1 (relative stereo),> 100,> 100
> 100,> 10000,> 100,,,,,,O=C1[C@@H](Oc2ccc(Cl)cc2)[C@@H](c2cccc([N+](=O)[O-])c2)N1c1ccc(Nc2nc(N3CCOCC3)nc(N3CCOCC3)n2)cc1 (relative stereo),100,> 100
> 100,> 10000,> 100,,,,,,COc1ccc(N2C(=O)C3(c4ccccc4Oc4ccccc43)C2c2ccc(Oc3nc(N4CCOCC4)nc(N4CCOCC4)n3)cc2)cc1 (configuration not stated),38.4,> 100
> 100,> 10000,> 100,0.935 ×10⁵ /M,,-2,,,O=C1N(c2ccc(Nc3nc(N4CCOCC4)nc(N4CCOCC4)n3)cc2)C(c2ccc(Cl)cc2)C12c1ccccc1Oc1ccccc12 (configuration not stated),2.06,> 100
> 100,> 10000,> 100,,,,,,O=C1[C@@H](Oc2ccc(Cl)cc2)[C@@H](c2ccc(Oc3nc(N4CCOCC4)nc(N4CCOCC4)n3)cc2)N1c1ccc(Nc2nc(N3CCOCC3)nc(N3CCOCC3)n2)cc1,> 100,> 100
> 100,> 10000,> 100,,,,,,O=C1[C@@H](Oc2ccc(Cl)cc2Cl)[C@@H](c2ccc(Oc3nc(N4CCOCC4)nc(N4CCOCC4)n3)cc2)N1c1ccc(Nc2nc(N3CCOCC3)nc(N3CCOCC3)n2)cc1 (relative stereo),> 100,> 100
> 100,> 10000,> 100,,,,,,O=C1N(c2ccc(Nc3nc(N4CCOCC4)nc(N4CCOCC4)n3)cc2)C(c2ccc([N+](=O)[O-])cc2)C12c1ccccc1Oc1ccccc12 (configuration not stated),> 100,> 100
> 100,> 10000,> 100,,,,,,O=C1N(c2ccc(Nc3nc(N4CCOCC4)nc(N4CCOCC4)n3)cc2)C(c2cccc([N+](=O)[O-])c2)C12c1ccccc1Oc1ccccc12 (configuration not stated),> 100,> 100
> 100,> 10000,> 100,0.943 ×10⁴ /M,,-2,,,O=C1[C@@H](Oc2ccccc2)[C@@H](c2cccc([N+](=O)[O-])c2)N1c1ccc(Nc2nc(N3CCOCC3)nc(N3CCOCC3)n2)cc1 (relative stereo),1.98,> 100
> 100,> 10000,> 100,,,,,,C(=N\c1ccc(Nc2nc(N3CCOCC3)nc(N3CCOCC3)n2)cc1)/c1ccc(Oc2nc(N3CCOCC3)nc(N3CCOCC3)n2)cc1,> 100,> 100
> 100,195,> 100,,,,1.08,-4,O=[N+]([O-])c1ccc(/C=N/c2ccc(Nc3nc(N4CCOCC4)nc(N4CCOCC4)n3)cc2)cc1,3.32,> 100
> 100,30,> 100,,,,,,CN(C)c1ccc(/N=C/c2ccc(Oc3nc(N4CCOCC4)nc(N4CCOCC4)n3)cc2)cc1,15.6,> 100
7.3,,,,,,,,COc1cccc2c1C(=O)c1c(O)c3c(c(O)c1C2=O)C[C@@](O)(C(=O)CO)C[C@@H]3O[C@H]1C[C@H](N)[C@H](O)[C@H](C)O1 [DOXORUBICIN],6.9,6.1
> 100,6200,> 100,,,,,,COc1ccc(N2C(=O)[C@@H](Oc3ccc(Cl)cc3)[C@H]2c2ccc(Oc3nc(N4CCOCC4)nc(N4CCOCC4)n3)cc2)cc1 (relative stereo),30,> 100
> 100,> 10000,> 100,,,,,,O=C1[C@@H](Oc2ccccc2)[C@@H](c2ccc([N+](=O)[O-])cc2)N1c1ccc(Nc2nc(N3CCOCC3)nc(N3CCOCC3)n2)cc1 (relative stereo),17.5,> 100
> 100,445,> 100,,,,,,O=[N+]([O-])c1cccc(/C=N/c2ccc(Nc3nc(N4CCOCC4)nc(N4CCOCC4)n3)cc2)c1,15.1,> 100
> 100,> 10000,> 100,,,,,,CCOc1ccc(N2C(=O)[C@@H](Oc3ccc(Cl)cc3)[C@H]2c2ccc(Oc3nc(N4CCOCC4)nc(N4CCOCC4)n3)cc2)cc1 (relative stereo),1.53,> 100
